Results from patent publication US5068325A, “4,5,7,8-tetrahydro-6H-thiazolo[5,4-d]azepines, their preparation and their use as pharmaceutical compositions” (priority 1988, dated 1991).

Legend:
[1] = test system: MPTP monkeys; test: post-synaptic dopaminergic activity in MPTP monkeys; assay type: in vivo, rhesus monkey; conditions: for minimal effective dose: Primates, in Macaca mulatta, im, rhesus monkeys, i.m., read-out: minimum dose (MED) required to alleviate the Parkinson's symptoms
Description: 6. Determining the post-synaptic dopaminergic activity in MPTP monkeys (Modified Method of R. S. Burns et al., Proc. Natl. Acad. Sci. 80. 4546 (1983))
The neurotoxin 1-methyl-4-phenyl-1,2,3,6- tetrahydro-pyridine (MPTP) produces in humans and monkeys an irreversible syndrome which in its clinical, pathological, biochemical and pharmacological appearance is very similar to idiopathic Parkinson's disease (Markey et al., Nature 311, 464 (1984)). The reason for this similarity is that MPTP selectively destroys those dopaminergic nerve cells in the substantia nigra of the brain which are also lost by degenerative processes in Parkinson's disease. There is even some discussion that MPTP or an MPTP-like substance might be formed in the body and trigger Parkinson's disease (S. H. Snyder, Nature 311, 514 (1984)). Possibly because of the specific MPTP metabolism, the clinical formation of the MPTP-induced Parkinson syndrome has hitherto been detected only in humans and monkeys. The MPTP model produced in the rhesus monkey is therefore exceptionally suitable for testing the activity of post-synaptically acting dopamine agonists. For this purpose, rhesus monkeys were given MPTP in overall doses of up to about 6 mg/kg of body weight, until the following symptoms appeared: The animals were akinetic and unable to take water and food.
It is clear that with the compounds according to the invention there is no sedative effect or ataxia at a dosage which is several times the MED, which can be put down to the absence of a corresponding activity mediated by the α2- receptors.

[2] = target: T1, serotonin-1A(5-HT1A) receptors (Rattus norvegicus, UniProt P19327); test: affinity for serotonin-1A (5-HT1A) receptors by displacement experiments with [3H]-8-OH-DPAT (rat frontal cortex); assay type: binding; conditions: [3H]-8-OH-DPAT; rat frontal cortex; read-out: 5-HT1A-Ki
T1 construct: The frontal cortex was dissected out; from tissue; host or cells: rat frontal cortex homogenate (Chbb:Thom strain)
T1 sequence (P19327 1-422): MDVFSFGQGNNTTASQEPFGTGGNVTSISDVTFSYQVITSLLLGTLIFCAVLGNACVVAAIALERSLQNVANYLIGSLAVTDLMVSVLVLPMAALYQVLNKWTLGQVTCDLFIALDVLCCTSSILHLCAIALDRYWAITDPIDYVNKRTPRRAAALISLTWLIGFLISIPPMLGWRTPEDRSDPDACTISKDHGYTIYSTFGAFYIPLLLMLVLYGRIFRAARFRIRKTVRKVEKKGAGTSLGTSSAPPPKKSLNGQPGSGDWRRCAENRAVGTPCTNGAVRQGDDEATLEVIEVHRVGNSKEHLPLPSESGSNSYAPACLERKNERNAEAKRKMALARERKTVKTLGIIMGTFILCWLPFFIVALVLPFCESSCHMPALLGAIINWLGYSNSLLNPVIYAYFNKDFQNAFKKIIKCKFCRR
Procedure: 3. […] (Method of S. J. Peroutka, J. Neurochem. 47, 529 (1986), modified according to H. Gozlan et al., J. Receptor Research 7. 195 (1987))
A male rat (Chbb:Thom strain weighing about 200 g) was decapitated. The brain was removed and placed in ice-cold buffer (50 mmol/1 tris-HCl plus hydrochloric acid ad pH =7.4 at ambient temperature). The frontal cortex was dissected out; its moist weight was determined. It was homogenised in 40 times its volume of buffer (Polytron, position 6, 10 seconds), then centrifuged for 20 minutes at 45,000×g in the refrigerated centrifuge. The pellet was washed in 100 times its volume of buffer and centrifuged again as described above. The resulting pellet was resuspended in 40 times its volume of buffer and pre-incubated for 10 minutes at 37° C. Sixty times the volume of buffer were added and centrifuging was carried out as above. The resulting pellet was washed with 100 times the volume of buffer and centrifuged as above. The pellet was resuspended in buffer (0.8 ml/10 mg) and briefly homogenised in the Polytron. This homogenised tissue was cooled in ice until ready for incubation.
Incubation was stopped by rapid filtering through Whatman GF/B filters; rinsing was carried out twice, each time with 5 ml of ice cold buffer (Filter Prep, Messrs. Ismatec). The radioactivity of the filters was determined by liquid scintillation measurement.
Specific binding is obtained from total binding minus non-specific binding.

[3] = test system: hypersensitive dopamine receptor; test: motility triggering in the mouse treated 24 hours earlier with reserpine; assay type: in vivo
Procedure: This test determines predominantly agonistic effects on the hypersensitive dopamine receptor.
Male mice are treated 24 hours before the experiment with 5 mg/kg i.p. reserpine. The animals are kept at 25°-30° C. and treated three times with 2 ml of a 5% glucose solution in tyrode s.c. (the first time when the reserpine is given, the second time in the evening of the pre-treatment day and the third time on the morning of the test day).
[…] (The injection volume is usually 0.1 ml/10 g of body weight). 30 minutes later the groups of animals are placed in the observation cages (measuring 42 x 24 x 8 cm) and fitted with an infrared lightbeam in order to measure their activity. The value measured is the frequency with which a group of 6 mice pass through the infra-red beam within 5 minutes ("running pulses/5 minutes"; mean at n=3; mean±s.e.m. at n=6).
3 to 6 groups are tested for each substance.

For C=CCN1CCc2nc(N)sc2CC1 [Compound A, reference compound], the Duration of activity ([1]; 0.03 mg/kg i.m. (MED)) was 0.5 to 1 h, the “effect on MPTP-induced symptoms” value ([1]; MPTP-treated rhesus monkeys) was “temporary cessation of this phenomenon” and the minimal effective dose [1] was 0.03 mg/kg. For the same compound, the Ki [2] was 4.69 µM, the “running pulses every 5 minutes” value ([3]; 3 mg/kg s.c.) was 50 running pulses every 5 minutes and the ED (50 running pulses/5 min) ([3]; Mus musculus, sc, reserpine-treated mice, s.c., read-out: DLi50 (dosage resulting in 50 running pulses every 5 minutes)) was 3 mg/kg.
Nc1nc2c(s1)CCN(Cc1ccc(Cl)cc1)CC2 [Compound B, reference compound] was tested, and the Duration of activity ([1]; 0.15 mg/kg i.m.) was 5 h, the “running pulses every 5 minutes” value ([3]; 5 mg/kg s.c.) was 22 running pulses every 5 minutes and the “effectiveness in motility triggering compared with compound A” value ([3]; reserpine-treated mice, s.c.) was “less effective than compound A”.
Nc1nc2c(s1)CCN(CC=Cc1cccc3ccccc13)CC2 [Example 4t, 2-Amino-6-(3-(1-naphthyl)allyl)-4,5,7,8-tetrahydro-6H-thiazolo[5,4-d]azepine] was tested, and the Ki [2] was 0.35 µM.
Nc1nc2c(s1)CCN(CC=Cc1cccc(OCc3ccccc3)c1)CC2 [Example 4y, 2-Amino-6-(3-(3-benzyloxy-phenyl)allyl)-4,5,7,8-tetrahydro-6H-thiazolo[5,4-d]azepine] gave a Ki [2] of 23 µM.
Work on Nc1nc2c(s1)CCN(CC=Cc1nccc3ccccc13)CC2 [Example 7a, 2-Amino-6-(3-(1-isoquinolinyl)allyl)-4,5,7,8-tetrahydro-6H-thiazolo[5,4-d]azepine] yielded a Ki [2] of 1.1 µM.
For Nc1nc2c(s1)CCN(CC=Cc1ccccc1N1CCCCC1)CC2 [Example 11p, 2-Amino-6-(3-(2-(1-piperidino)phenyl)-2-propen-1-yl)-4,5,7,8-tetrahydro-6H-thiazolo[5,4-d]azepine], the Ki [2] was 1.77 µM.
In the case of N#Cc1ccc(C=CCN2CCc3nc(N)sc3CC2)cc1 [Example 14b, 2-Amino-6-(3-(4-cyano-phenyl)allyl)-4,5,7,8-tetrahydro-6H-thiazolo[5,4-d]azepine], the Duration of activity ([1]; 0.05 mg/kg i.m. (MED)) is reported as 2.0 to 5 h, the Side effects ([1]; 0.05 mg/kg i.m. (MED)) is reported as “none” and the Duration of activity ([1]; 0.50 mg/kg i.m.) is reported as > 5 h. It also gave a minimal effective dose [1] of 0.05 mg/kg and a Ki [2] of 7.8 µM.
Work on Nc1nc2c(s1)CCN(CC=Cc1cc3ccccc3cn1)CC2 [Example 24a, 2-Amino-6-(3-(3-isoquinolinyl)allyl)-4,5,7,8-tetrahydro-6H-thiazolo[5,4-d]azepine] yielded a Ki [2] of 3.5 µM.
